Data as given in PubChem BioAssay (NCI).
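In this assay, cells in 96-well plates receive the compound at five concentrations for 48 hours. Endpoints are linearly interpolated between the surrounding concentrations. GI50: concentration for 50% inhibition of growth. The concentration for full growth arrest is given as TGI.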

Assays:
Assay in all cases: NCI tumour cell line growth inhibition, 48 h
BT-549 breast = tested on: BT-549 breast
HCT-116 colon = tested on: HCT-116 colon
MDA-N = tested on: MDA-N
SR leukemia = tested on: SR leukemia
SNB-75 CNS = tested on: SNB-75 CNS
MALME-3M melanoma = tested on: MALME-3M melanoma
M14 melanoma = tested on: M14 melanoma
SF-268 CNS = tested on: SF-268 CNS
DMS 114 small cell lung = tested on: DMS 114 small cell lung
XF 498 CNS = tested on: XF 498 CNS
LXFL 529 NSCLC = tested on: LXFL 529 NSCLC
DLD-1 colon = tested on: DLD-1 colon
KM20L2 colon = tested on: KM20L2 colon
SNB-78 CNS = tested on: SNB-78 CNS
M19-MEL melanoma = tested on: M19-MEL melanoma

Row | SMILES | TGI (BT-549 breast) [µM] | TGI (HCT-116 colon) [µM] | TGI (MDA-N) [µM] | TGI (SR leukemia) [µM] | TGI (SNB-75 CNS) [µM] | TGI (MALME-3M melanoma) [µM] | TGI (M14 melanoma) [µM] | TGI (SF-268 CNS) [µM] | GI50 (SR leukemia) [µM] | TGI (DMS 114 small cell lung) [µM] | TGI (XF 498 CNS) [µM] | TGI (LXFL 529 NSCLC) [µM] | TGI (DLD-1 colon) [µM] | TGI (KM20L2 colon) [µM] | TGI (SNB-78 CNS) [µM] | TGI (M19-MEL melanoma) [µM]
1 | CSC1=C(c2ccc(Cl)cc2)SC(N2CCCCC2)N1c1ccc([N+](=O)[O-])cc1 (stereo not drawn) | > 100 | 62.8 | > 100 | > 100 | 96.2 | > 100 | > 100 | > 100 | – | – | – | – | – | – | – | –
2 | Cc1cccc2c1NC(=S)[C@@H]1CCCN1C2=O | > 100 | > 100 | > 100 | > 100 | > 100 | > 100 | > 100 | > 100 | – | – | – | – | – | – | – | –
3 | COC(=O)c1c(C)cccc1/C=C1\Cc2cc(C)cc(C)c2C1=O | > 100 | > 100 | > 100 | > 100 | 38.4 | > 100 | > 100 | > 100 | – | – | – | – | – | – | – | –
4 | CC[C@H]1OC([C@H](O)C/C=C\C#C[Si](C)(C)C)C/C=C\C[C@H]1O[Si](C)(C)C(C)(C)C (stereo partly drawn) | > 100 | > 100 | > 100 | > 100 | > 100 | > 100 | > 100 | > 100 | – | – | – | – | – | – | – | –
5 | CCC1C(c2cc(OC)c(OC)c(OC)c2)c2cc3c(cc2OC1N1CCOCC1)OCO3 (stereo not drawn) | 22 | 13.4 | 3.83 | > 100 | 26.3 | 52.6 | 23.7 | 41.5 | – | – | – | – | – | – | – | –
6 | N/C(=N/n1c(=S)[nH]c2ccccc2c1=O)Nn1c(=S)[nH]c2ccccc2c1=O | 55.4 | 30.4 | 85.4 | 52 | > 100 | 45.6 | 23.8 | 56.8 | – | – | – | – | – | – | – | –
7 | C[Si](C)(OCCS(=O)(=O)O)C1S(=O)(=O)OCCOS1(=O)=O | > 100 | > 100 | > 100 | > 100 | 59.9 | > 100 | > 100 | > 100 | – | – | – | – | – | – | – | –
8 | COc1cccc(NC(=O)CC(=O)N2N=C(C)C(N=Nc3ccc(S(=O)(=O)c4ccc(N=NC5C(=O)N(C(=O)CC(=O)Nc6cccc(OC)c6)N=C5C)cc4)cc3)C2=O)c1 (stereo not drawn) | > 100 | > 100 | > 100 | > 100 | > 100 | > 100 | > 100 | > 100 | – | – | – | – | – | – | – | –
9 | N#Cc1ccc(OCc2nc3cc(C(F)(F)F)ccc3nc2-c2ccccc2)cc1 | > 100 | > 100 | > 100 | > 100 | > 100 | > 100 | > 100 | > 100 | – | – | – | – | – | – | – | –
10 | CSc1ccc(/C=C2\N=C(c3ccccc3)N(c3nc4ccc(Sc5ccccc5)cc4[nH]3)C2=O)cc1 | 50.1 | 48.5 | 18 | > 87.5 | 45.6 | > 58.5 | 32.5 | > 77.8 | 13.7 | – | – | – | – | – | – | –
11 | O=C(N/N=C\c1ccc2ccccc2c1)Nc1ccc([N+](=O)[O-])cc1 | > 77.3 | > 59 | > 70.6 | > 100 | > 100 | > 70.9 | > 95.8 | > 89.9 | – | – | – | – | – | – | – | –
12 | Cc1ccc(Nc2cc(=O)[nH]c(=S)[nH]2)cc1 | > 100 | > 100 | > 100 | > 100 | > 100 | > 100 | > 100 | > 100 | – | – | – | – | – | – | – | –
13 | CC(C)C1OC(=O)/C=C/C=C/C=C/C=C/C=C/CC(O)CC(O)CC(O)CC(O)CC(O)CC(O)CC(O)CC(O)/C=C/C1C (stereo not drawn) | > 100 | > 100 | > 100 | > 100 | > 100 | > 100 | > 100 | > 100 | – | – | – | – | – | – | – | –
14 | CN(C)c1ccc(/C=C/C=C(/C#N)c2ccccc2)cc1 | > 100 | > 77 | 5.28 | > 39.7 | 76 | > 100 | > 85.1 | > 100 | – | – | – | – | – | – | – | –
15 | O=[N+]([O-])c1cccnc1NCC1(CO)CC(Cc2ccccc2)C1 (stereo not drawn) | > 100 | > 100 | > 100 | > 100 | > 100 | > 100 | – | > 100 | – | – | – | – | – | – | – | –
16 | Brc1ccc2[nH]cc(-c3nc(-c4c[nH]c5ccccc45)cs3)c2c1 | 23.4 | 7.15 | 9.35 | > 100 | 25.1 | 9.39 | 3.73 | 11.4 | – | – | – | – | – | – | – | –
17 | N#CC1(C#N)NC(c2ccsc2)C(C#N)(C#N)NC1c1ccsc1 (stereo not drawn) | > 100 | > 100 | > 100 | > 100 | > 100 | > 100 | > 100 | > 100 | – | – | – | – | – | – | – | –
18 | CN(C)Cc1cc(N=Nc2ccccc2)cc(CN(C)C)c1O | > 100 | > 100 | > 100 | > 100 | > 100 | > 100 | > 100 | > 100 | – | – | – | – | – | – | – | –
19 | Cc1ccc(N=C2C(=O)C3=C(OC(C)(C)CC3)c3ccccc32)cc1 | 3.46 | 1.05 | 0.335 | 1.6 | 2.51 | 1.7 | 1.59 | 6.37 | – | – | – | – | – | – | – | –
20 | NC(=O)N1N=C2c3ccccc3SC[C@H]2[C@@H]1c1ccccc1 | – | 28.2 | – | > 100 | – | > 100 | – | > 100 | – | 79.9 | 56.8 | 94.2 | 91 | 39.8 | 93.3 | > 100
